Assay results published in ChEMBL document CHEMBL1201862, “PubChem BioAssay data set” (2004).
Calls of active or inactive are those of the source.

Experiments:
Genome polyprotein = Genome polyprotein (dengue virus type 2, UniProt P29990); test: Dengue-2 NS5 methyltransferase inhibitors, primary screen, biochemical, confirmation dose response (AID 588689); type: functional
[1] = Luminescence Cell-Based Dose Confirmation HTS to Identify Activators of 5'UTR Stem-Loop Driven Alpha-Synuclein mRNA Translation in H4 Neuroglioblastoma Cells. [Related pubchem assays: 1829 (Project Summary), 1814 (Primary HTS)]; type: functional
[2] = Luminescence Cell-Based Dose Response HTS to Identify Activators of Luciferase Translation or Activity in H4 […] Cells. [Related pubchem assays: 1829 (Project Summary), 1814 (Primary HTS)]; type: functional
H4 = test: Luminescence Cell-Based Dose Response HTS to Identify Activators of 5'UTR Stem-Loop Driven Prion Protein mRNA Translation in H4 Neuroglioblastoma Cells. [Related pubchem assays: 1829 (Project Summary), 1814 (Primary HTS)]; type: functional; conditions: Homo sapiens
[3] = target: FAD-linked sulfhydryl oxidase ALR (Homo sapiens, UniProt P55789); test: inhibitors of human ALR sulfhydryl oxidase, dose response, biochemical, H2O2 detection, luminescence, cherry-pick (AID 493248)
FAD-linked sulfhydryl oxidase ALR, sequence (P55789 whole entry, the tested form may be a part): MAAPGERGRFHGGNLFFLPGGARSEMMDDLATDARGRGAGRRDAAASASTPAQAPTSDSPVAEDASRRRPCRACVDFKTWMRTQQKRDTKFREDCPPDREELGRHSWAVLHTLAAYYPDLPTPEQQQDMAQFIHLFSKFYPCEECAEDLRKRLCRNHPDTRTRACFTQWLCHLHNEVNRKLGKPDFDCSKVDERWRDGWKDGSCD

Fatty acid synthase [4] = target: T1, Fatty acid synthase (Homo sapiens, UniProt P49327); test: FAS thioesterase domain inhibitors, dose response, biochemical, endpoint fluorescence intensity, uHTS hits (AID 624327); type: functional;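 note: fluorescence from hydrolysis of an O-methyl fluorescein acyl ester substrate by the enzyme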
T1 sequence (P49327 whole entry, the tested form may be a part): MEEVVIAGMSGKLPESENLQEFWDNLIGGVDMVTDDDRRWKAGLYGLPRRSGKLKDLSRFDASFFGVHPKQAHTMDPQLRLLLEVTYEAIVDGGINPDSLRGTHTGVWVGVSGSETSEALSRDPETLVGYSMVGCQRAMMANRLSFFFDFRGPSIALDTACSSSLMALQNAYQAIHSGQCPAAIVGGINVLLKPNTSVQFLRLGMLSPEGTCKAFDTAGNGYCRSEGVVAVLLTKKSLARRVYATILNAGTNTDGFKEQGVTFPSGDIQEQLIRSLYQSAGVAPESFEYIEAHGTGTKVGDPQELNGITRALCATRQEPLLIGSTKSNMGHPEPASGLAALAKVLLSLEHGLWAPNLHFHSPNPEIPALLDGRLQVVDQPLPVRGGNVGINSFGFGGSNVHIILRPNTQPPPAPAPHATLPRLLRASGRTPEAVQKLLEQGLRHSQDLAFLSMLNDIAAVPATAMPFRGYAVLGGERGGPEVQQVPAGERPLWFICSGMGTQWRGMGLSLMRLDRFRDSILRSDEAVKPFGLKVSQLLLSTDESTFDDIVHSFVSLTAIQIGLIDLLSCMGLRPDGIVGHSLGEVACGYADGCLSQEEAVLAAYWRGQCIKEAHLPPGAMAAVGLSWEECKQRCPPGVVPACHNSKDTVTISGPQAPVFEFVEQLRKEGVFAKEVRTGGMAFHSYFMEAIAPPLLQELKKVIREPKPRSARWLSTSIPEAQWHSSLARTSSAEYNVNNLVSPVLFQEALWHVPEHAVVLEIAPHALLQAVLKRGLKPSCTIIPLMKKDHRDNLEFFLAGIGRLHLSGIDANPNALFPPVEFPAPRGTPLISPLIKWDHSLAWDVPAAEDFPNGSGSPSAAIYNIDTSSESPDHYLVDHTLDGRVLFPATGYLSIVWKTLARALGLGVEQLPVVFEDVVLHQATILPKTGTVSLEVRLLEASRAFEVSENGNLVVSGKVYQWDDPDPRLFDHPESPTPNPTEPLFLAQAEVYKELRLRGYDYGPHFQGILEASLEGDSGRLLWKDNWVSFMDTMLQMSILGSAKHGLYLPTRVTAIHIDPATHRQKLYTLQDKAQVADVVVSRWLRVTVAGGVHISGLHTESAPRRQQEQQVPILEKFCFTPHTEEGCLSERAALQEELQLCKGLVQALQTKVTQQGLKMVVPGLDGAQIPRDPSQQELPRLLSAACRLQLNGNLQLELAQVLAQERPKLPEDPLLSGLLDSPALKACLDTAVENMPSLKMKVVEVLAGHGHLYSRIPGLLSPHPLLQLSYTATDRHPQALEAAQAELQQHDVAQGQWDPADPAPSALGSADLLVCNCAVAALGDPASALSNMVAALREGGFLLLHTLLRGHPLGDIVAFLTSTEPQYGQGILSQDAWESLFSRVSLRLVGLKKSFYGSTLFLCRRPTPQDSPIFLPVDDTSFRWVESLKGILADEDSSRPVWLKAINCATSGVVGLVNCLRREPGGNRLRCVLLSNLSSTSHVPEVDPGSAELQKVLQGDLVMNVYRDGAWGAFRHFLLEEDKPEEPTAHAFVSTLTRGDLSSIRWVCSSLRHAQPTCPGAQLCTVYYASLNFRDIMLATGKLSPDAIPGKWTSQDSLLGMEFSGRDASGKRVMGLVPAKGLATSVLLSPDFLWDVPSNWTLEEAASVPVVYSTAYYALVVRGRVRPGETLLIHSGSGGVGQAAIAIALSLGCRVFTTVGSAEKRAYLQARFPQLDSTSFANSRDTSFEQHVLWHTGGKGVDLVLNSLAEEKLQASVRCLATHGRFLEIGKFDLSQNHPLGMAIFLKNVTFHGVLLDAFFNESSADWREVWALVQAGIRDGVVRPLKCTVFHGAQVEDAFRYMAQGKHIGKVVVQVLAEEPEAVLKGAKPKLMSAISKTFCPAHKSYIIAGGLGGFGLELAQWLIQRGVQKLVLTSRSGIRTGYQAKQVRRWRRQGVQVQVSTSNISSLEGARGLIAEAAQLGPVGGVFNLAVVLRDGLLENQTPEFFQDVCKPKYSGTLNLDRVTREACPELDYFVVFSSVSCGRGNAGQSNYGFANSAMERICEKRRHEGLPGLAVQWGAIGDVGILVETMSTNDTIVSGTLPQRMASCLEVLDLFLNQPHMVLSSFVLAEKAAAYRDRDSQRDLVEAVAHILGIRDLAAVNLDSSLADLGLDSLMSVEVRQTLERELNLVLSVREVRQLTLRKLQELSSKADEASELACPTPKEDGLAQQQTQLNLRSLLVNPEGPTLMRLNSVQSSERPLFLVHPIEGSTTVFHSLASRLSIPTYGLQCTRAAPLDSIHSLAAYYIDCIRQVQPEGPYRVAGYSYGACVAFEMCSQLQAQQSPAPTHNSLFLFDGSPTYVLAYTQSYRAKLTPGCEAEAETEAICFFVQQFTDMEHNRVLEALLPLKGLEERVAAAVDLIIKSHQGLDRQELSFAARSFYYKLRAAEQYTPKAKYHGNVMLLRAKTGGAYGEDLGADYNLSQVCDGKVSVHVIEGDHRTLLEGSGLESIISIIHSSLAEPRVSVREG

Fatty acid synthase [5] = target: T1, Fatty acid synthase; test: FAS thioesterase domain inhibitors, dose response, biochemical, kinetic fluorescence intensity (AID 624326); type: functional;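 note: rate of fluorescence rise from hydrolysis of a fluorogenic O-methyl fluorescein ester substrate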
Leucine aminopeptidase = target: T2, Leucine aminopeptidase (Plasmodium falciparum 3D7, UniProt Q8IL11); test: P. falciparum M17LAP inhibitors, primary screen, biochemical, fluorogenic H-Leu-NHMec substrate, 1536-well (AID 1619); type: functional
T2 sequence (Q8IL11 whole entry): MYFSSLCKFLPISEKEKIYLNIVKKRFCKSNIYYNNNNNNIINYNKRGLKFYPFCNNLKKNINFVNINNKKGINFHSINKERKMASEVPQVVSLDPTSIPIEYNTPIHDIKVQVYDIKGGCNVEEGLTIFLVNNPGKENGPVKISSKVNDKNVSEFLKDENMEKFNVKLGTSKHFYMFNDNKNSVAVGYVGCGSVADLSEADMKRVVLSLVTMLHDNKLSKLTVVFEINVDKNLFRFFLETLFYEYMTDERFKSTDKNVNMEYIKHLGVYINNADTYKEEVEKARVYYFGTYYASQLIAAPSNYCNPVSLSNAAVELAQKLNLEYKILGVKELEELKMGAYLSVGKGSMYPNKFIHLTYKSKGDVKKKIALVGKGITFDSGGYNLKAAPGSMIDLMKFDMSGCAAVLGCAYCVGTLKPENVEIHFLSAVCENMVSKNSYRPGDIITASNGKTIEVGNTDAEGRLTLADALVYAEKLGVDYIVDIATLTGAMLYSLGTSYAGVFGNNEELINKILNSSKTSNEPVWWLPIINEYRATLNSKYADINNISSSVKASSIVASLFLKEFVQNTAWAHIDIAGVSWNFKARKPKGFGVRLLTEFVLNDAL

[6] = P. falciparum Dd2 growth inhibitors, dose response, SYBR Green, cherry-picked samples (AID 1159567); type: functional, cell-based
[7] = target: T3, RNA-binding protein pos-1 (Caenorhabditis elegans, UniProt G5EF15); test: inhibitors of POS-1/mex-3 RNA binding, dose response, biochemical, fluorescence polarization (AID 1964);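 note: purified POS-1 fused to maltose binding protein made in E. coli; potency of compounds blocking POS-1 binding to fluorescent RNA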
T3 sequence (G5EF15 whole entry): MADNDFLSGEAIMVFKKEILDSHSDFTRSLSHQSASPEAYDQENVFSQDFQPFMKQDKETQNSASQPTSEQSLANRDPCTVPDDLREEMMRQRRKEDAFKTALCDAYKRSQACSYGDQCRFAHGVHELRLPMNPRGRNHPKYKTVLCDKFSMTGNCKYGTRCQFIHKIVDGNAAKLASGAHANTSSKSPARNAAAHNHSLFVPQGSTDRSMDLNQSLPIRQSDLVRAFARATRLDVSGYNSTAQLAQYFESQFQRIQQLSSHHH

[8] = target: T4, Zinc finger protein mex-5 (Caenorhabditis elegans, UniProt Q9XUB2); test: MEX-5/TCR-2 RNA interaction inhibitors, dose response, biochemical, C. elegans, fluorescence polarization (AID 1960)
T4 sequence (Q9XUB2 whole entry): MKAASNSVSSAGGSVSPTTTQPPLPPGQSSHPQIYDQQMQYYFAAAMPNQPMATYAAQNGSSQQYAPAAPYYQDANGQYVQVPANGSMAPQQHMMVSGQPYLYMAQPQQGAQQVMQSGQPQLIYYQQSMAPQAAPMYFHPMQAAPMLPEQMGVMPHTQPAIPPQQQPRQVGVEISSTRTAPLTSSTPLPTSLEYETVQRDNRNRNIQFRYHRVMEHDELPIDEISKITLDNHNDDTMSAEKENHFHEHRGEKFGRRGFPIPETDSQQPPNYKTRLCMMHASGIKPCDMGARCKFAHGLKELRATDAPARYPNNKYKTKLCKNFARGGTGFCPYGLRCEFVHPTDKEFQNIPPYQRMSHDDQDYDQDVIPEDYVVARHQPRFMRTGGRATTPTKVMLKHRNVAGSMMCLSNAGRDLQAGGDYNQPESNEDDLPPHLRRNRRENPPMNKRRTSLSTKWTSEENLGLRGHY

Genome polyprotein, sequence (P29990 2492-3391 limits assumed): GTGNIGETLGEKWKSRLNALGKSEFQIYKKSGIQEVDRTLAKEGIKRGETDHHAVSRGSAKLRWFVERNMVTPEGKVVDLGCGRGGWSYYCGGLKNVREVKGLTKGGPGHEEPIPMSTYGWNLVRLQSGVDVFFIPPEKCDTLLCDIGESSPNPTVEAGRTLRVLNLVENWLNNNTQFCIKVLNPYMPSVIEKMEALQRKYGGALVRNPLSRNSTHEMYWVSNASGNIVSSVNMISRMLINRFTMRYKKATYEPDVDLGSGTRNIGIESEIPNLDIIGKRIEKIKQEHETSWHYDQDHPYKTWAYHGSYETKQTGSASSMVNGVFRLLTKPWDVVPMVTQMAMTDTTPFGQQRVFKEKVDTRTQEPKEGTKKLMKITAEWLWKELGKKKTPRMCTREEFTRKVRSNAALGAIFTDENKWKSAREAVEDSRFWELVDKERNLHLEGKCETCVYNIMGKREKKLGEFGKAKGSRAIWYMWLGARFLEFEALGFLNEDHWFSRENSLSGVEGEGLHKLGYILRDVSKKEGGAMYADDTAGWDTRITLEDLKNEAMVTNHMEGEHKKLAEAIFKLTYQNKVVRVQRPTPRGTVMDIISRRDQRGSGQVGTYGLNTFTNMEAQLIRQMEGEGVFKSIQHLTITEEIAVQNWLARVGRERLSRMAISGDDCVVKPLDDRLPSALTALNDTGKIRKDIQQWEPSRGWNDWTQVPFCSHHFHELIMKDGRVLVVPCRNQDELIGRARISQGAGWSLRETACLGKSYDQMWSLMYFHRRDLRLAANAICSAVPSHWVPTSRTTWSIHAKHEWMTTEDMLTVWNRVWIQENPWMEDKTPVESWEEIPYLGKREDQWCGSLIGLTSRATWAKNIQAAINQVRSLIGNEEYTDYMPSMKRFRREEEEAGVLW

CC(=O)N(C(C)=O)N1C(=O)C2C3c4ccccc4C(c4ccccc43)C2C1=O (stereo not drawn)
IC50 (Genome polyprotein): 53.8 µM (active)

CC(C)c1ccc(/C=C2\SC(=O)N(CC(=O)NCCCn3ccnc3)C2=O)cc1
EC50 [1]: 29.8 µM (active)
EC50 [2]: 0.418 µM (active)
EC50 (H4): 18.7 µM (active)
AC50 [3]: 1.75 µM (active)

CN1C[C@H](C(=O)NC2(C)OC3(O)[C@@H]4CCCN4C(=O)[C@H](Cc4ccccc4)N3C2=O)CC2c3cccc4[nH]cc(c34)C[C@H]21 (stereo partly drawn)
IC50 (Fatty acid synthase [4]): 10.3 µM (active)
IC50 (Fatty acid synthase [5]): 11.8 µM (active)

O=C(O)CC12CC3CC(C1)CC(n1ncc(NCc4ccc5c(c4)OCO5)c(Cl)c1=O)(C3)C2
IC50 (Leucine aminopeptidase): 40.6 µM (active)

O=C1CS/C(=C\S(=O)(=O)c2ccc(Cl)cc2)N1
IC50 (Leucine aminopeptidase): 40 µM (active)

Cc1ccc(NC2CCCN(C(=O)Cc3nonc3C)C2)cc1C (stereo not drawn)
AC50 [3]: 2.54 µM (active)

CO[C@H]1CN(C)C(=O)c2cc(NC(=O)c3cc(C)on3)ccc2OC[C@H](C)N(C(=O)C2CC2)C[C@H]1C
AC50 [6]: 4.96 µM (active)

Nc1[nH]nc2nc(N3CCOCC3)nc(-c3ccccc3)c12
IC50 (Leucine aminopeptidase): 6.77 µM (active)

CO[C@H]1CN(C)C(=O)c2ccc(NC(=O)Nc3ccc(C(F)(F)F)cc3)cc2OC[C@@H](C)NC[C@@H]1C
AC50 [6]: 9.45 µM (active)

O=C(Nc1nc(=O)n(C(=O)C2CC2)s1)c1ccccc1
IC50 (Leucine aminopeptidase): 40.7 µM (active)

Cc1cccc(CSC2=NCCN2C(=O)c2ccco2)c1
AC50 [3]: 11 µM (active)

COC(=O)c1ccc(NS(=O)(=O)NC(=O)c2cn(C)c3ccccc23)cc1
EC50 [1]: > 120 µM (not active)
EC50 [2]: > 120 µM (not active)
EC50 (H4): > 120 µM (not active)

COc1ccc(C(=O)NCCNc2ncc(C(F)(F)F)cc2Cl)cc1[N+](=O)[O-]
IC50 (Fatty acid synthase [4]): 12.7 µM (active)
IC50 (Fatty acid synthase [5]): 12 µM (active)

CCOc1ccc(CCNC(=O)COC(=O)c2cc([N+](=O)[O-])ccc2N2CCOCC2)cc1OCC
IC50 (Fatty acid synthase [4]): 10.1 µM (active)
IC50 (Fatty acid synthase [5]): 9.59 µM (active)

Nc1c(Br)cc(Br)c2c1C(=O)c1c(cccc1S(=O)(=O)O)C2=O
IC50 (Genome polyprotein): 96.1 µM (active)

Cc1cc(Br)ccc1NC(=O)CN(C)C(=O)c1cc([N+](=O)[O-])ccc1N1CCOCC1
IC50 (Fatty acid synthase [4]): 8.23 µM (active)
IC50 (Fatty acid synthase [5]): 4.65 µM (active)

O=C1CN(C(=O)c2cc([N+](=O)[O-])ccc2Cl)C(c2ccccc2)c2cc(F)ccc2N1 (stereo not drawn)
IC50 (Fatty acid synthase [4]): 1.36 µM (active)
IC50 (Fatty acid synthase [5]): 1.99 µM (active)

CCC(=O)N1[C@H](CO)[C@H](c2ccc(C3=CCCCC3)cc2)[C@H]1CNCC1CCC1
AC50 [6]: 3.46 µM (active)

CCSc1nnc(-c2c[nH]c3ccccc23)o1
EC50 [1]: 63.9 µM (active)
EC50 [2]: 21.1 µM (active)
EC50 (H4): 24.7 µM (inconclusive)

Cc1ccc2c(c1)C(=O)C(=O)N2CCCOc1ccccc1C
IC50 (Genome polyprotein): > 100 µM (active)

CCN(CCCNC(=O)CNC(=O)Cn1cnc2ccccc2c1=O)c1ccccc1
AC50 [3]: 0.729 µM (active)

FC(F)(F)c1c[nH]c2c(-c3ccccc3)nnc-2c1
EC50 [1]: 1.29 µM (active)
EC50 [2]: 19.3 µM (active)
EC50 (H4): 13.9 µM (active)

CCCC(=O)N1CC2(C1)CN(Cc1ccc(Cl)cc1)[C@@H](CO)c1[nH]c3cc(OC)ccc3c12
AC50 [6]: 5.26 µM (active)

N=C(NOC(=O)c1ccco1)c1ccc(Cl)cc1
AC50 [3]: 13.1 µM (active)

CSc1ccc(Cl)c(C(=O)OCC(=O)NCc2ccco2)c1
IC50 (Leucine aminopeptidase): 49.9 µM (active)

O=C(O)CN1C(=O)/C(=C\c2ccccc2OCc2ccc(F)cc2)SC1=S
IC50 (Genome polyprotein): 43.2 µM (active)

Cc1cc(-c2nnc3n2N=C(c2ccc(F)cc2)CS3)[nH]n1
EC50 [1]: > 120 µM (not active)
EC50 [2]: > 120 µM (not active)
EC50 (H4): > 120 µM (not active)

COCCCn1c(SCC(=O)Nc2ccc(C(C)=O)cc2)nc2ccccc2c1=O
EC50 [1]: 13.9 µM (active)
EC50 [2]: 22.8 µM (active)
EC50 (H4): 68.6 µM (active)

O=C(Nn1c(C2CCCCC2)nc2ccccc2c1=O)c1ccc([N+](=O)[O-])cc1Cl
IC50 (Fatty acid synthase [4]): 19.3 µM (active)
IC50 (Fatty acid synthase [5]): 18.9 µM (active)

COC(=O)CC(NC(=O)Nc1ccc(C)cc1)c1cccc([N+](=O)[O-])c1 (stereo not drawn)
IC50 (Fatty acid synthase [4]): 11.5 µM (active)
IC50 (Fatty acid synthase [5]): 8.7 µM (active)

CCc1ccc(NC(=O)c2[nH]c(C)c(C(C)=O)c2C)cc1
EC50 [1]: 1.62 µM (active)
EC50 [2]: 2.6 µM (active)

Cc1nn(CCOc2ccc(Br)cc2)c(C)c1[N+](=O)[O-]
IC50 (Fatty acid synthase [4]): 15.9 µM (active)
IC50 (Fatty acid synthase [5]): 24.6 µM (inactive)

Cc1nn(-c2cc(C)c3ccccc3n2)c2c1CCC2
EC50 [1]: 4.27 µM (active)
EC50 [2]: 18.8 µM (active)
EC50 (H4): 80.3 µM (active)

O=C(NCCc1cccs1)C1CC(c2ccc([N+](=O)[O-])cc2)=NO1 (stereo not drawn)
EC50 [1]: 118 µM (active)
EC50 [2]: 50.8 µM (active)
EC50 (H4): 16.2 µM (active)

Cc1ccc(S(=O)(=O)c2cc3c(=O)n4ccccc4nc3n(CCc3ccccc3)c2=N)cc1
EC50 [7]: 111 µM (inconclusive)
EC50 [1]: 97.9 µM (active)
EC50 [2]: > 120 µM (not active)
EC50 (H4): 0.713 µM (active)
EC50 [8]: 3.75 µM (inconclusive)

NNC(=O)c1cccc(COc2ccccc2Br)c1
AC50 [3]: > 100 µM (inactive)

Cc1[nH]c2ccccc2c1C(=O)COc1ccccc1
EC50 [1]: 18.7 µM (active)
EC50 [2]: 16.4 µM (active)
EC50 (H4): 13.2 µM (active)

O=C(Cn1cnc2ccccc2c1=O)Nc1ccc2c(c1)CCC2
IC50 (Leucine aminopeptidase): 5.23 µM (active)

COc1ccc(C(=O)C[n+]2ccccc2C=NO)cc1
EC50 [1]: 12.5 µM (active)
EC50 [2]: 12.1 µM (active)
EC50 (H4): 32 µM (active)

COc1cccc(/C=C/c2nc(O)nc(O)c2[N+](=O)[O-])c1O
AC50 [3]: 39.1 µM (active)
IC50 (Genome polyprotein): 72.5 µM (active)

COc1ccc(C2CC23N=C(c2ccccc2)OC3=O)cc1 (stereo not drawn)
IC50 (Fatty acid synthase [4]): 0.724 µM (active)
IC50 (Fatty acid synthase [5]): 0.712 µM (active)

COc1ccc(C(=O)CCN2CCc3cc(OC)c(OC)cc3C2)cc1
AC50 [3]: 1.84 µM (active)
